# Measurements from patent publication US10442815B2, “Tricyclic heterocyclic compounds as phosphoinositide 3-kinase inhibitors” (Karus Therapeutics Limited, priority 2015, dated 2019).
# What was measured:
# Experiment in all cases: Ki determination, non-radiometric ADP-Glo assay (Proqinase GmbH)
# Format in all cases: biochemical
# [1] = target: T1, PI3K p110α (Homo sapiens, UniProt P42336)
# T1 construct: assay run at Proqinase GmbH
# Description: (§1) Biochemical activity against class I PI3K isoforms was confirmed by either Ki determination using the non-radiometric ADP-Glo™ assay (Promega, Madison, Wis., USA) at Proqinase GmbH, or IC50 determination using the HTRF biochemical assay at Reaction Biology Corp.
# [2] = target: T2, PI3K p110β (Homo sapiens, UniProt P42338)
# T2 construct: assay run at Proqinase GmbH
# Description: as §1
# [3] = target: T3, PI3K p110γ (Homo sapiens, UniProt P48736)
# T3 construct: assay run at Proqinase GmbH
# Description: as §1
# [4] = target: T4, PI3K p110δ (Homo sapiens, UniProt O00329)
# T4 construct: assay run at Proqinase GmbH
# Description: as §1
# T4 sequence (O00329 whole entry): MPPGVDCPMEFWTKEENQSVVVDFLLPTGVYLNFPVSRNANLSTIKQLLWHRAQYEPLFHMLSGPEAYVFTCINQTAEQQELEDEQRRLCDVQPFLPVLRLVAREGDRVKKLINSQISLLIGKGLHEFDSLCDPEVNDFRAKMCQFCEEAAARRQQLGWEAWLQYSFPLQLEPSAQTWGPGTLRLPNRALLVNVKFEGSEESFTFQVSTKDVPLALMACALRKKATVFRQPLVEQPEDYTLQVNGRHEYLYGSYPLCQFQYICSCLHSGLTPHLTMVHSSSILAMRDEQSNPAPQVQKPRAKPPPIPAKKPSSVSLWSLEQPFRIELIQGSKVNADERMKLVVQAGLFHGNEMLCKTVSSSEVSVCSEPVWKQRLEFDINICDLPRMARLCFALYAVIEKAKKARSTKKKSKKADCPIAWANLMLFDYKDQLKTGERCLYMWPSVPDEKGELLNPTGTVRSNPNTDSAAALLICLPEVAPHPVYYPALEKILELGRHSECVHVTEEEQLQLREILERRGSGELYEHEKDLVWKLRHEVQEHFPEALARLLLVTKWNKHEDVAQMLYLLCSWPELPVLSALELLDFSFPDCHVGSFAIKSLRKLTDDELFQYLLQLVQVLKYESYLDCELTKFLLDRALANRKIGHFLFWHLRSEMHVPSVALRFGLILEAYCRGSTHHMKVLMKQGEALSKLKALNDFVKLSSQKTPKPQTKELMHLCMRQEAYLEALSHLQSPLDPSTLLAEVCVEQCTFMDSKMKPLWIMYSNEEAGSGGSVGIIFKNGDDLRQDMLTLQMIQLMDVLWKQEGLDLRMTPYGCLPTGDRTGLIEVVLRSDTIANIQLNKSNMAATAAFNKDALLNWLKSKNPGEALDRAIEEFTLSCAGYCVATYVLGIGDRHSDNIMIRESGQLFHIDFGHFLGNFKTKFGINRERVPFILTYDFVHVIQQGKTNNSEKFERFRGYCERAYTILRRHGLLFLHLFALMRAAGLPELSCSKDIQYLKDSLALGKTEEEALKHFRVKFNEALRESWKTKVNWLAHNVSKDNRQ
# T4 sequence (P27986 whole entry partner): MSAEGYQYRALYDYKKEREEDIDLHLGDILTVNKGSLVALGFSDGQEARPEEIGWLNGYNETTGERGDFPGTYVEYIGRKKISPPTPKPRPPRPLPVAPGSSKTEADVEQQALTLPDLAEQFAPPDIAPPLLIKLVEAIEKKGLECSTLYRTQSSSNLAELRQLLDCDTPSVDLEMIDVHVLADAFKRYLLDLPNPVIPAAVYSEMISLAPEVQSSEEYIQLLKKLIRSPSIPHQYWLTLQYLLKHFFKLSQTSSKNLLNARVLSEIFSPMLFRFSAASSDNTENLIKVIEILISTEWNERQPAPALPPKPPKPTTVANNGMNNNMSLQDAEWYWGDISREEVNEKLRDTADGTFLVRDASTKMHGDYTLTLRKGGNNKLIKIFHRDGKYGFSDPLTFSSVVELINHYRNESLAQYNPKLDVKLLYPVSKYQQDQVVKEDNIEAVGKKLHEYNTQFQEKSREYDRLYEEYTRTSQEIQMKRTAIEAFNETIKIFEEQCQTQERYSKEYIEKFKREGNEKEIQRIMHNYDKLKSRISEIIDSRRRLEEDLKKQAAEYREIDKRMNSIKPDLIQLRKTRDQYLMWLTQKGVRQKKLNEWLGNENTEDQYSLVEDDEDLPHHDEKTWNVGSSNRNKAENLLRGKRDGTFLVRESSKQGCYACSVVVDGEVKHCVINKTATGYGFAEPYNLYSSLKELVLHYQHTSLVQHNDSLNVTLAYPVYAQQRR
# T2 sequence (P42338 whole entry): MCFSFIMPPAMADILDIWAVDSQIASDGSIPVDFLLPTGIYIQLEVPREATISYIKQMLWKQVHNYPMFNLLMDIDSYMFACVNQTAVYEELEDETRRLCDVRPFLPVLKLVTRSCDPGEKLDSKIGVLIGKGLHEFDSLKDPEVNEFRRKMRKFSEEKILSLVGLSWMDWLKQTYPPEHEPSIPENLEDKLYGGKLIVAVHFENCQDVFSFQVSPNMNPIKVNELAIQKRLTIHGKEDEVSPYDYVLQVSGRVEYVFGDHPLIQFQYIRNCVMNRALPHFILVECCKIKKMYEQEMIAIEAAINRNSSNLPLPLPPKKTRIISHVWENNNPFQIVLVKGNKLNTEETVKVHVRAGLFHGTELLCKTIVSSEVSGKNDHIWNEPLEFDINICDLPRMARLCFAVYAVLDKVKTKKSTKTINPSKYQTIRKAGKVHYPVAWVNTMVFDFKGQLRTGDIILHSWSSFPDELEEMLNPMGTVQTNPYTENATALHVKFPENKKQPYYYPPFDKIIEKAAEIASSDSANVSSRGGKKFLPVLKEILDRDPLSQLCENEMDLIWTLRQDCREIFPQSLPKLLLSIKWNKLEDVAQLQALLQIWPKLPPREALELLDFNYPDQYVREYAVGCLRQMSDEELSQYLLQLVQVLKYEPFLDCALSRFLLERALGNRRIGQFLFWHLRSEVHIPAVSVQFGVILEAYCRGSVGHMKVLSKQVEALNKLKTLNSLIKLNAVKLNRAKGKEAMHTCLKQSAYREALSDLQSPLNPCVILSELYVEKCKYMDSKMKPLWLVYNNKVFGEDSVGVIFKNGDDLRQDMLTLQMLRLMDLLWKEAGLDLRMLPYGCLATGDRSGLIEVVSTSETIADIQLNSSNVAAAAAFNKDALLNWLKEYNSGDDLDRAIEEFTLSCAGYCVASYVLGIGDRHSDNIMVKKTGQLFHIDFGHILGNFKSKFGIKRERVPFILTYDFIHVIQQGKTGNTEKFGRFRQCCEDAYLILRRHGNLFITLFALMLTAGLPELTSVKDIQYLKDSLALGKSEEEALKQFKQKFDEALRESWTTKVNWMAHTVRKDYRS
# T2 sequence (P27986 whole entry partner): as the sequence (P27986 whole entry partner) above
# T1 sequence (P42336 whole entry): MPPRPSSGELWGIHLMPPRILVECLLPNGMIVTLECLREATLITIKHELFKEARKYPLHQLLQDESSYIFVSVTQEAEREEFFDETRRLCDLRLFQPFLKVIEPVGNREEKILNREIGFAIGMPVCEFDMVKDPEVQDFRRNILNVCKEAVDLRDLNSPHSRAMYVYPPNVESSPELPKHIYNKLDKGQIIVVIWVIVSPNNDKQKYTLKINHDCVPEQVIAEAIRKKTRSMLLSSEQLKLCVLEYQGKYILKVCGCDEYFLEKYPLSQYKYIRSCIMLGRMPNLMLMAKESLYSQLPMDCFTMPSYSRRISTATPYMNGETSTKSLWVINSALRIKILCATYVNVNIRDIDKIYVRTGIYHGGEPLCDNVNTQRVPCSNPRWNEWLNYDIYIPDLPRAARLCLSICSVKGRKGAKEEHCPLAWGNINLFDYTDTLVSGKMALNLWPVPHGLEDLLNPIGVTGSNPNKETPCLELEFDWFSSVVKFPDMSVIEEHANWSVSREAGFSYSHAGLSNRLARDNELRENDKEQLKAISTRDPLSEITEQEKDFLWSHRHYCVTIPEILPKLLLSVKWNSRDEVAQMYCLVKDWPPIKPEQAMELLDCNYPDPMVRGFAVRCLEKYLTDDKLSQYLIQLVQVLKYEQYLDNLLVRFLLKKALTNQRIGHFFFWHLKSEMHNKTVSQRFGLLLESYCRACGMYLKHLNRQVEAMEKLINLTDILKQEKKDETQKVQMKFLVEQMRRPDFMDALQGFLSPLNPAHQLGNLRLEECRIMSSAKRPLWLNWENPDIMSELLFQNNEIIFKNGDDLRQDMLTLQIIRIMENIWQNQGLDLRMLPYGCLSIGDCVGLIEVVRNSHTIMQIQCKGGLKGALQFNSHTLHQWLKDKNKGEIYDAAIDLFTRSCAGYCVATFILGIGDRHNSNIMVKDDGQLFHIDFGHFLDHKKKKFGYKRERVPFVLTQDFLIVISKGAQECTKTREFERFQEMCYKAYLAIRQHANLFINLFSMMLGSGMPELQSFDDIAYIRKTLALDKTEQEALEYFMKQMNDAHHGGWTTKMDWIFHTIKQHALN
# T1 sequence (P27986 whole entry partner): as the sequence (P27986 whole entry partner) above
# T3 sequence (P48736 whole entry): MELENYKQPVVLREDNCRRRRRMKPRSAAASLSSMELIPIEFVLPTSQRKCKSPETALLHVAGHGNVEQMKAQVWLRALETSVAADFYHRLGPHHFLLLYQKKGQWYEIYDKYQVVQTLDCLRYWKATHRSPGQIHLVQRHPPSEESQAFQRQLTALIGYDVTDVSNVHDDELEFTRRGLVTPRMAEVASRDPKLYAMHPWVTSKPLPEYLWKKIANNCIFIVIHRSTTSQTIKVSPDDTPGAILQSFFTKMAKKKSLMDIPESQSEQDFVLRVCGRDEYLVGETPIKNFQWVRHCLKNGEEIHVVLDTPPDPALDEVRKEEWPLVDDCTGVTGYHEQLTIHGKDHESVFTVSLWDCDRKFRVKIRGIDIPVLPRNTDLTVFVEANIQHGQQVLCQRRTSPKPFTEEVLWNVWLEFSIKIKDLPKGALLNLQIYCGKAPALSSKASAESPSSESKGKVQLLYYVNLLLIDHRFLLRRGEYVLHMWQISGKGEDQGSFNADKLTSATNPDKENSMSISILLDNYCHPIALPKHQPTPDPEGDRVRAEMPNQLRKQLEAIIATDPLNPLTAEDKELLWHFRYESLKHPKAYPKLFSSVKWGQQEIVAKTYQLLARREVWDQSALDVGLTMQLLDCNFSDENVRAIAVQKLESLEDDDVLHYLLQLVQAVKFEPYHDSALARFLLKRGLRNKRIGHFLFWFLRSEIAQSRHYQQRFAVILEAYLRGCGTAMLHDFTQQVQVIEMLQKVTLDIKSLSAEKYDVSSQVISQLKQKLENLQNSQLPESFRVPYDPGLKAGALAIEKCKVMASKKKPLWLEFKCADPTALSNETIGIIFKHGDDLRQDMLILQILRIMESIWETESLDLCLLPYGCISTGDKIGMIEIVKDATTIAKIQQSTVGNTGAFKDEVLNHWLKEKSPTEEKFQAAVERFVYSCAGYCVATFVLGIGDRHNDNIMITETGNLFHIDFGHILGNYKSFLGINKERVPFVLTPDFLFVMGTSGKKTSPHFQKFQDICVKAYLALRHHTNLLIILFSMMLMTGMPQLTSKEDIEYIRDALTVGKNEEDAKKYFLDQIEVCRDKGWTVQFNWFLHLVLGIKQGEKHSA
Ki [1],Ki [2],Ki [3],Ki [4],Compound
1000 to 10000 nM,≤ 500 nM,> 10000 nM,≤ 500 nM,"O=S1(=O)CCN(Cc2cnc3oc4c(N5CCOCC5)nc(-c5cccc6[nH]ccc56)nc4c3c2)CC1 [Example A, 4-{[4-(1H-Indol-4-yl)-6-(morpholin-4-yl)-8-oxa-3,5,10-triazatricyclo[7.4.0.0^2,7]trideca-1(13),2(7),3,5,9,11-hexaen-12-yl]methyl]-1λ^6-thiomorpholine-1,1-dione]"
500 to 1000 nM,≤ 500 nM,1000 to 10000 nM,≤ 500 nM,"Cc1cc2c(-c3nc(N4CCOCC4)c4oc5ncc(CN6CC[S+]([O-])CC6)cc5c4n3)cccc2[nH]1 [Example AG, 4-{[4-(2-methyl-1H-indol-4-yl)-6-(morpholin-4-yl)-8-oxa-3,5,10-triazatricyclo[7.4.0.0^2^,7]trideca-1(13),2(7),3,5,9,11-hexaen-12-yl]methyl}-1λ^4-thiomorpholin-1-one]"
1000 to 10000 nM,≤ 500 nM,> 10000 nM,≤ 500 nM,"[O-][S+]1CCN(Cc2cnc3oc4c(N5CCOCC5)nc(-c5cccc6[nH]ccc56)nc4c3c2)CC1 [Example AH, 4-{[4-(1H-indol-4-yl)-6-(morpholin-4-yl)-8-oxa-3,5,10-triazatricyclo[7.4.0.0^2^,7]trideca-1(13),2(7),3,5,9,11-hexaen-12-yl]methyl}-1λ^4-thiomorpholin-1-one]"
> 10000 nM,1000 to 10000 nM,> 10000 nM,≤ 500 nM,"COc1ccc2c(c1-c1nc(N3CCOCC3)c3oc4ncc(CN5CC[S+]([O-])CC5)cc4c3n1)CCN2 [Example AI, 4-{[4-(5-Methoxy-2,3-dihydro-1H-indol-4-yl)-6-(morpholin-4-yl)-8-oxa-3,5,10-triazatricyclo[7.4.0.0^2^,7]trideca-1(13),2(7),3,5,9,11-hexaen-12-yl]methyl}-1λ^4-thiomorpholin-1-one]"
> 10000 nM,1000 to 10000 nM,> 10000 nM,≤ 500 nM,"[O-][S+]1CCN(Cc2cnc3oc4c(N5CCOCC5)nc(-c5cccc6[nH]cc(F)c56)nc4c3c2)CC1 [Example AJ, 4-{[4-(3-fluoro-1H-indol-4-yl)-6-(morpholin-4-yl)-8-oxa-3,5,10-triazatricyclo[7.4.0.0^2^,7]trideca-1(13),2(7),3,5,9,11-hexaen-12-yl]methyl}-1λ^4-thiomorpholin-1-one]"
> 10000 nM,1000 to 10000 nM,> 10000 nM,1000 to 10000 nM,"[O-][S+]1CCN(Cc2cnc3sc4c(N5CCOCC5)nc(-c5cccc6[nH]ccc56)nc4c3c2)CC1 [Example AK, 4-{[4-(1H-Indol-4-yl)-6-(morpholin-4-yl)-8-thia-3,5,10-triazatricyclo[7.4.0.0^2^,7]trideca-1(9),2,4,6,10,12-hexaen-12-yl]methyl}-1λ^4-thiomorpholin-1-one]"
> 10000 nM,> 10000 nM,> 10000 nM,1000 to 10000 nM,"Cc1c[nH]c2cccc(-c3nc(N4CCOCC4)c4oc5ncc(CN6CC[S+]([O-])CC6)cc5c4n3)c12 [Example AL, 4-{[4-(3-Methyl-1H-indol-4-yl)-6-(morpholin-4-yl)-8-oxa-3,5,10-triazatricyclo[7.4.0.0^2^,7]trideca-1(13),2(7),3,5,9,11-hexaen-12-yl]methyl}-1λ^4-thiomorpholin-1-one]"
> 10000 nM,> 10000 nM,> 10000 nM,1000 to 10000 nM,"[O-][S+]1CCN(Cc2cnc3oc4c(N5CCOCC5)nc(-c5cc(Cl)cc6[nH]ccc56)nc4c3c2)CC1 [Example AM, 4-{[4-(6-Chloro-1H-indol-4-yl)-6-(morpholin-4-yl)-8-oxa-3,5,10-triazatricyclo[7.4.0.0^2^,7]trideca-1(13),2(7),3,5,9,11-hexaen-12-yl]methyl}-1λ^4-thiomorpholin-1-one]"
> 10000 nM,> 10000 nM,> 10000 nM,> 10000 nM,"N#Cc1c[nH]c2cccc(-c3nc(N4CCOCC4)c4oc5ncc(CN6CC[S+]([O-])CC6)cc5c4n3)c12 [Example AN, 4-[6-(morpholin-4-yl)-12-[(1-oxo-1λ^4-thiomorpholin-4-yl)methyl]-8-oxa-3,5,10-triazatricyclo[7.4.0.0^2,^7]trideca-1(13),2(7),3,5,9,11-hexaen-4-yl]-1H-indole-3-carbonitrile]"
≤ 500 nM,≤ 500 nM,1000 to 10000 nM,≤ 500 nM,"CN(CCS(C)(=O)=O)Cc1cnc2oc3c(N4CCOCC4)nc(-c4cccc5[nH]ccc45)nc3c2c1 [Example C, {[4-(1H-Indol-4-yl)-6-(morpholin-4-yl)-8-oxa-3,5,10-triazatricyclo[7.4.0.0^2,7]trideca-1(13),2(7),3,5,9,11-hexaen-12-yl]methyl}(2-methanesulfonylethyl)methylamine]"
> 10000 nM,≤ 500 nM,> 10000 nM,≤ 500 nM,[O-][S+]1CCN(Cc2cnc3oc4c(N5CCOCC5)nc(-c5cc(F)cc6[nH]ccc56)nc4c3c2)CC1 [Example D]
1000 to 10000 nM,≤ 500 nM,1000 to 10000 nM,≤ 500 nM,[O-][S+]1CCN(Cc2cnc3oc4c(N5CCOCC5)nc(-c5c(F)ccc6[nH]ccc56)nc4c3c2)CC1 [Example E]
> 10000 nM,> 10000 nM,> 10000 nM,> 10000 nM,[O-][S+]1CCN(Cc2cnc3oc4c(N5CCOCC5)nc(-c5cc(C(F)(F)F)cc6[nH]ccc56)nc4c3c2)CC1 [Example F]
500 to 1000 nM,≤ 500 nM,1000 to 10000 nM,≤ 500 nM,N=S1(=O)CCN(Cc2cnc3oc4c(N5CCOCC5)nc(-c5cccc6[nH]ccc56)nc4c3c2)CC1 [Example G]
500 to 1000 nM,≤ 500 nM,1000 to 10000 nM,≤ 500 nM,"C[C@H](c1cnc2oc3c(N4CCOCC4)nc(-c4cccc5[nH]ccc45)nc3c2c1)N1CCS(=O)(=O)CC1 [Example H, 4-[(1R)-1-[4-(1H-Indol-4-yl)-6-(morpholin-4-yl)-8-oxa-3,5,10-triazatricyclo[7.4.0.0^2,7]trideca-1(13),2,4,6,9,11-hexaen-12-yl]ethyl]-1λ^6-thiomorpholine-1,1-dione]"
≤ 500 nM,≤ 500 nM,> 10000 nM,≤ 500 nM,"C[C@@H](c1cnc2oc3c(N4CCOCC4)nc(-c4cccc5[nH]ccc45)nc3c2c1)N1CCS(=O)(=O)CC1 [Example I, 4-[(1S)-1-[4-(1H-Indol-4-yl)-6-(morpholin-4-yl)-8-oxa-3,5,10-triazatricyclo[7.4.0.0^2,7]trideca-1(13),2,4,6,9,11-hexaen-12-yl]ethyl]-1λ^6-thiomorpholine-1,1-dione]"
1000 to 10000 nM,≤ 500 nM,> 10000 nM,≤ 500 nM,"c1cc(-c2nc(N3CCOCC3)c3oc4ncc(CN5C[C@@H]6C[C@H]5CS6)cc4c3n2)c2cc[nH]c2c1 [Example J, 4-(1H-Indol-4-yl)-6-(morpholin-4-yl)-12-[(1 S,4S)-2-thia-5-azabicyclo[2.2.1]heptan-5-ylmethyl]-8-oxa-3,5,10-triazatricyclo[7.4.0.0^2,7]trideca-1(13),2,4,6,9,11-hexaene]"
1000 to 10000 nM,≤ 500 nM,> 10000 nM,≤ 500 nM,"O=S1(=O)C[C@@H]2C[C@H]1CN2Cc1cnc2oc3c(N4CCOCC4)nc(-c4cccc5[nH]ccc45)nc3c2c1 [Example K, (1S,4S)-5-{[4-(1H-Indol-4-yl)-6-(morpholin-4-yl)-8-oxa-3,5,10-triazatricyclo[7.4.0.0^2,7]trideca-1(13),2,4,6,9,11-hexaen-12-yl]methyl}-2λ^6-thia-5-azabicyclo[2.2.1]heptane-2,2-dione]"
500 to 1000 nM,≤ 500 nM,1000 to 10000 nM,≤ 500 nM,"[O-][S+]1CC2CC1CN2Cc1cnc2oc3c(N4CCOCC4)nc(-c4cccc5[nH]ccc45)nc3c2c1 [Example L, (1S,2R,4S)-5-{([4-(1H-Indol-4-yl)-6-(morpholin-4-yl)-8-oxa-3,5,10-triazatricyclo[7.4.0.0^2,7]trideca-1(13),2,4,6,9,11-hexaen-12-yl]methyl}-2-thia-5-azabicyclo[2.2.1]heptan-2-ium-2-olate]"
> 10000 nM,> 10000 nM,> 10000 nM,> 10000 nM,"O=C1Cc2c(cccc2-c2nc(N3CCOCC3)c3oc4ncc(CN5CC[S+]([O-])CC5)cc4c3n2)N1 [Example N, 4-[6-(morpholin-4-yl)-12-[(1-oxo-1λ^4-thiomorpholin-4-yl)methyl]-8-oxa-3,5,10-triazatricyclo[7.4.0.0^2,^7]trideca-1(13),2(7),3,5,9,11-hexaen-4-yl]-2,3-dihydro-1H-indol-2-one]"
> 10000 nM,≤ 500 nM,> 10000 nM,≤ 500 nM,"[O-][S+]1CCN(Cc2cnc3oc4c(N5CCOCC5)nc(-c5cccc6c5CCN6)nc4c3c2)CC1 [Example O, 4-{[4-(2,3-Dihydro-1H-indol-4-yl)-6-(morpholin-4-yl)-8-oxa-3,5,10-triazatricyclo[7.4.0.0^2,7]trideca-1(13),2(7),3,5,9,11-hexaen-12-yl]methyl}-1λ^4-thiomorpholin-1-one]"
1000 to 10000 nM,≤ 500 nM,1000 to 10000 nM,≤ 500 nM,"Cc1ccc2[nH]ccc2c1-c1nc(N2CCOCC2)c2oc3ncc(CN4CC[S+]([O-])CC4)cc3c2n1 [Example P, 4-{[4-(5-Methyl-1H-indol-4-yl)-6-(morpholin-4-yl)-8-oxa-3,5,10-triazatricyclo[7.4.0.0^2,7]trideca-1(9),2,4,6,10,12-hexaen-12-yl]methyl}-1λ^4-thiomorpholin-1-one]"
> 10000 nM,1000 to 10000 nM,> 10000 nM,≤ 500 nM,"[O-][S+]1CCN(Cc2cnc3oc4c(N5CCOCC5)nc(-c5ccc(F)c6[nH]ccc56)nc4c3c2)CC1 [Example Q, 4-{[4-(7-Fluoro-1H-indol-4-yl)-6-(morpholin-4-yl)-8-oxa-3,5,10-triazatricyclo[7.4.0.0^2,7]trideca-1(13),2(7),3,5,9,11-hexaen-12-yl]methyl}-1λ^4-thiomorpholin-1-one]"
